Assay results taken from US20230255934A1, “NURR1 RECEPTOR MODULATORS AND USES THEREOF” (The Regents of the University of California, priority 2020, published 2023).
Substitutions are numbered along the chain they refer to. Where two headings read alike, the source gives them in different places.

Tests used:
[1] = tested on: MN9D cells; experiment: CytoTox-Glo cytotoxicity assay; assay type: cell-based; settings: 24 h treatment, 10 μM unless stated
Procedure: Cytotoxicity assays were carried out using the CytoTox-Glo Cytotoxicity Assay Kit (Promega) according to the manufacturer's instructions. Briefly, MN9D cells were resuspended in DMEM/F-12 with 5% FBS at 2·10^5 cells/ml and added to an equal volume of two-fold concentrated compound in the same media containing 0.2% DMSO (prepared by diluting DMSO stock of the compound in warm DMEM/F-12 with 5% FBS; for DMSO control equivalent volume of DMSO was used instead of the compound stock), and immediately re-plated onto poly-D-lysine pre-treated 96-well white-walled flat clear bottom plate (Corning cat #3903) at a density of 1·10^4 cells/well (100 μL/well), 3 replicas per compound. As a background (BG) control, for each of the compound (or DMSO) equivalent volume of compound mixed with DMEM/F-12+5% FBS was plated. After 24 h treatment at 37° C., in 5% C02 incubator, 50 μL of CytoTox-Glo™ Cytotoxicity Assay Reagent was added to each well, mixed briefly by orbital shaking and incubated for 15 min at ambient temperature. Luminescence signal corresponding to dead cells was measured using Biotek Synergy H4 hybrid microplate reader. After the measurement, 50 μL of Lysis Reagent was added to each well, mixed, incubated for 15 min at ambient temperature, and total luminescence was measured. The percentage of viable cells was then calculated as follows: Percent Viable Cells (%)=100% (Total cell luminescence (test compound)—Dead cell luminescence (test compound))/(Total cell luminescence (DMSO)—Dead cell luminescence (DMSO)).

[2] = Chemical stability in solution; assay type: physicochemical; settings: observed during data acquisition
[3] = target: T1, Nurr1 LBD His516Ala (Homo sapiens, UniProt P43354, H516A); experiment: MST binding to His516Ala mutant Nurr1 LBD; settings: for Amplitude (% change) / KD (% change): Table 1, H516 relative to WT; for Amplitude: Table 1, MST amplitude, H516; for Response Amplitude: Table 2, MST, His516Ala
T1 construct: Mutants of LAP2 Nurr1 were prepared by GenScript starting from LAP2 Nurr1 vector; made in house
Procedure: (§1) The plasmid used for the expression of LAP2-tagged Nurr1 LBDs (LAP2 Nurr1) was prepared by GenScript (Piscataway, N.J.) as the product of gene synthesis and subcloning into pET-21a(+) Vector (GenScript) using the Ndel and Xhol sites within the MCS. Mutants of LAP2 Nurr1 were prepared by GenScript starting from LAP2 Nurr1 vector.
(§2) Concentration-dependent association of the indoles with the Nurr1 LBD was carried out using microscale thermophoresis. Stock solutions (10 mM in DMSO) of each indole were serially diluted (200 μM indole, 0.5× dilutions down to 0.0061 μM) in MST buffer (25 mM HEPES, pH 7.4, 150 mM NaCl, and 0.1% Pluronic F127) containing 2% DMSO. The dilutions were carried out with 4% DMSO in the MST buffer for a total of 16 concentrations. Equivalent volumes and concentrations of the fluorescently labeled Nurr1 LBD in MST buffer were added to each ligand dilution in the series to reach a final concentration of 75 nM labeled protein. After incubating for 20 minutes, the samples were loaded into Monolith NT.115 Capillaries (Nanotemper).
(§3) Data were collected using the Monolith NT.115 System (Nanotemper), with settings for all samples at 40% excitation power and 40% MST power. The initial fluorescence was recorded for 3 sec and the thermophoresis fluorescence response was recorded for 20 sec. The data was inspected with Palmist software^5, and data points affected by initial fluorescence quenching or photobleaching were eliminated. The fluorescent response for each sample was normalized to the initial fluorescence using Palmist software to provide the values of thermophoresis (Fn). The resulting data was used to generate a plot of the change in thermophoresis (Fn-Fn0, where Fn=thermophoresis and Fn0=thermophoresis response in unbound range) versus concentration of the ligand. GraphPad Prism v. 8.3.0 software was used to fit the resulting data to a mass action equation for a specific binding with Hill slope, solving for KD: Fn-Fn0═Fmax·[L]^n/(KD^n+[L]^n), where Fmax=maximum amplitude of thermophoresis, [L]=concentration of the ligand at a specific point, KD=dissociation constant, nH=Hill Coefficient.

[4] = target: T2, Nurr1 LBD (wildtype) (Homo sapiens, UniProt P43354); experiment: Microscale thermophoresis (MST) binding to wildtype Nurr1 LBD; settings: for Binding to the Nurr1 LBD (in words): MST; for Amplitude: Table 1, MST amplitude, WT; for Response Amplitude: Table 2, MST, Wildtype
T2 construct: made in house
Procedure: as §2, §3
To investigate the potential impact of compound nano-aggregation on binding affinity, we used dynamic light scattering to inspect the aggregation of 5-chlorindole in solution and repeated the MST binding experiments in the presence of increasing concentrations of the surfactant Pluoronic F127 (FIGS. 12A-12D). […] As well, increasing concentrations of the surfactant Pluronic F127 had small effects (<2-fold) on the affinity of 5-chloroindole for the Nurr1 LBD (FIGS. 12A-12D).

[5] = target: T3, Nurr1 LBD Arg563Ala (Homo sapiens, UniProt P43354, R563A); experiment: MST binding to Arg563Ala mutant Nurr1 LBD; settings: for Amplitude: Table 1, MST amplitude, R563A; for Amplitude (% change) / KD (% change): Table 1, R563A relative to WT; for Response Amplitude: Table 2, MST, Arg563Ala
T3 construct: Mutants of LAP2 Nurr1 were prepared by GenScript starting from LAP2 Nurr1 vector; made in house
T3 sequence (P43354 with tags, fused parts or gaps R563A): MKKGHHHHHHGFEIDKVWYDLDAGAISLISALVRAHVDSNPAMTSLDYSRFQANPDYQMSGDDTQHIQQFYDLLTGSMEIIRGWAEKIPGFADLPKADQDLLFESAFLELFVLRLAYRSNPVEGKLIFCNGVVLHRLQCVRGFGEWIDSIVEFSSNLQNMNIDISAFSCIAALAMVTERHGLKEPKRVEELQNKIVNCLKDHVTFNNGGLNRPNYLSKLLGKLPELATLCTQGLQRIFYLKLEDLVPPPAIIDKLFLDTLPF
Procedure: as §1, §2, §3

[6] = target: T4, Nurr1 LBD Arg563Ala + His516Ala (Homo sapiens, UniProt P43354, H516A/R563A); experiment: MST binding to Arg563Ala + His516Ala double mutant Nurr1 LBD; settings: for Amplitude (% change) / KD (% change): Table 1, H516A/R563A relative to WT; for Amplitude: Table 1, MST amplitude, H516A/R563A; for Response Amplitude: Table 2, MST, Arg563Ala + His516Ala
T4 construct: Mutants of LAP2 Nurr1 were prepared by GenScript starting from LAP2 Nurr1 vector; made in house
T4 sequence (P43354 with tags, fused parts or gaps H516A/R563A): T3 sequence (P43354 with tags, fused parts or gaps R563A) with H180A
Procedure: as §1, §2, §3

[7] = tested on: Nurr1 target genes Th and Vmat2 in MN9D cells; experiment: Target gene transcription assay (qPCR) in MN9D cells; assay type: cell-based, mouse
Procedure: Target Gene Transcription Assays. These assays were carried out using standard protocols. MN9D TET-ON frozen cell stocks (P5) were thawed and grown for 60-72 h on poly-D-lysine pre-treated culture dishes (100 mm) in Dulbecco's Modified Eagle Medium/Nutrient Mixture F-12 (DMEM/F-12; Gibco) supplemented with 5% Tet System Approved FBS (Takara Bio USA) at 37° C., 5% C02 to ˜80% confluency. The resulting cells were then trypsinized with 0.25% Trypsin-EDTA (Gibko) and diluted to 2·10^5 cells/ml with fresh medium. The resulting cell suspension (0.8 mL) was added to 2× concentrated compound in the same medium containing 0.2% DMSO (0.8 mL) in an Eppendorf tube. The cell suspension with compound or vehicle (DMSO) was then seeded onto a 24-well plate pre-treated with Poly-D-Lysine at 0.8 mL per well. Assays were performed under conditions of basal Nurr1 expression, without induction of additional Nurr1 expression using doxycycline.
After 24 h, total RNA was extracted the cells in each well using the Quick-RNA MiniPrep Plus Kit (Zymo Research), according to the manufacturer's instructions. The cDNA was then synthesized from 1000 ng of purified RNA using High-Capacity cDNA Reverse Transcription Kit (Applied Biosystems) and used as template. The qPCR as performed using iTaq Universal SYBR Green Supermix (BioRad) and CFX96 Real-Time Detection System machine (BioRad). Briefly, qPCR was performed in hard-shell 96-well PCR plates (BioRad) using cDNA corresponding to 8.75 ng of starting total RNA in a volume of 15 μl, containing 7.5 μl of SYBR Green Supermix, and 1 μL of 10 μM forward and reverse primers. Cycling parameters for qPCR included an initial denaturation at 95° C. for 3 min, followed by 40 cycles of 95° C. for 5 s and annealing at 56° C. for 30 s. The forward and reverse primers (Table 4) were ordered from IDT. Gene expression was quantified by the comparative2-ΔΔCt method, with the mouse housekeeping gene hypoxanthine-guanine phosphoribosyltransferase (Hprt) used as internal reference to determine the relative mRNA expression. Transcript levels for target genes were normalized to the housekeeping gene Hprt and fold change was compared to gene expression levels from vehicle (DMSO) only treated cells. GraphPad Prism 8 software was used for statistical analysis. Two-way ANOVA was applied for DMSO fold change vs compound. Results are from three independent experiments. Relative average expression±SD; *p<0.05, **p<0.01, ***p<0.001, ****p<0.0001 by ANOVA in comparison expression with 0 μM compound (DMSO only).

[8] = Table 1, Nurr1 variant H516, read-out: KD
[9] = Table 2, His516Ala, read-out: Affinity (KD)
[10] = Table 1, Nurr1 variant WT, read-out: KD
[11] = Table 2, Wildtype, read-out: Affinity (KD)
[12] = Table 1, Nurr1 variant R563A, read-out: KD
[13] = Table 2, Arg563Ala, read-out: Affinity (KD)
[14] = Table 1, Nurr1 variant H516A/R563A, read-out: KD
[15] = Table 2, Arg563Ala + His516Ala, read-out: Affinity (KD)

T1 sequence (P43354 with tags, fused parts or gaps H516A): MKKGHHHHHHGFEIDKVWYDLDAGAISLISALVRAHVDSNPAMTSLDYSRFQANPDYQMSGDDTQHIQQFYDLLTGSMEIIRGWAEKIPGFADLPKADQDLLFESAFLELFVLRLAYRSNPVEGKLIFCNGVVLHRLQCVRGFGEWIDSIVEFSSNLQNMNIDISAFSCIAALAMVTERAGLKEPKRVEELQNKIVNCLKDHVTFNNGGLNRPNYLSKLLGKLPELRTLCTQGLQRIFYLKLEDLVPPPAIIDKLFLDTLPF
T2 sequence (P43354 with tags, fused parts or gaps): as the sequence (P43354 with tags, fused parts or gaps H516A) above, with A180H counted along it

SMILES | Cytotoxicity / cell viability [1] | Chemical instability in solution [2] | Amplitude (% change) [3] | KD (% change) [3] | Amplitude [3] | Kd [3, 8] | Kd [3, 9] | Response Amplitude [3] | Binding to the Nurr1 LBD (in words) [4] | Amplitude [4] | Kd [4, 10] | Response Amplitude [4] | Kd [4, 11] | Amplitude [5] | Kd [5, 12] | Amplitude (% change) [5] | KD (% change) [5] | Kd [5, 13] | Response Amplitude [5] | Amplitude (% change) [6] | further results
Oc1ccc2cc[nH]c2c1 [6-hydroxyindole] | significant cytotoxicity | autooxidation and polymerization in solution |  |  |  |  |  |  |  |  |  |  |  |  |  |  |  |  |  |  | 
Oc1ccc2[nH]ccc2c1 [5-hydroxyindole] | significant cytotoxicity | autooxidation and polymerization in solution |  |  |  |  |  |  |  |  |  |  |  |  |  |  |  |  |  |  | 
Nc1ccc2[nH]ccc2c1 [5-aminoindole] | significant cytotoxicity | autooxidation and polymerization in solution |  |  |  |  |  |  |  |  |  |  |  |  |  |  |  |  |  |  | 
Brc1cc2cc[nH]c2cc1Br [5,6-dibromoindole] |  |  | +13% | +186% | 35 + 2 | 6.3 µM | 6.4 µM | 35 + 2 (ns) | saturable binding | 31 + 1 | 2.2 µM | 31 + 1 | 2.2 µM | 32 + 3 | 11 µM | +3% | +400% | 11 µM | 32 + 3 (ns) | +39% | KD (% change) [6]: +627%; Amplitude [6]: 43 + 5; Kd [6, 14]: 16 µM; Kd [6, 15]: 15.6 µM; Response Amplitude [6]: 43 + 5 (ns); Effect on expression of Nurr1 target genes Th and Vmat2 (in words) [7]: does not
Clc1cc2cc[nH]c2cc1Cl [5,6-dichloroindole] |  |  | +19% | +166% | 67 + 9 | 12 µM | 12 µM | 67 + 9 (ns) | saturable binding | 54 + 4 | 4.5 µM | 54 + 4 | 4.5 µM | 47 + 3 | 13 µM | −13% | +189% | 13.1 µM | 47 + 3 (ns) | 0% | KD (% change) [6]: +304%; Amplitude [6]: 54 + 5; Kd [6, 14]: 18 µM; Kd [6, 15]: 17.9 µM; Response Amplitude [6]: 54 + 5 (ns); Effect on expression of Nurr1 target genes Th and Vmat2 (in words) [7]: does not
Nc1ccc2cc[nH]c2c1 [6-aminoindole] | significant cytotoxicity | autooxidation and polymerization in solution |  |  |  |  |  |  |  |  |  |  |  |  |  |  |  |  |  |  | 
